Experimental data as given in the NIST ThermoML archive (doi:10.1016/j.fluid.2014.09.014).

Assay: refractive index (other wavelength) (dimensionless); xn = mol fraction of the nth substance listed
Details: 298.15 K, 101 kPa, Liquid, Standard Abbe refractometry

CC(C)OC(C)C [diisopropyl ether] + CC(C)O
refractive index
Details	Wavelength=587.6 nm	Wavelength=589.3 nm	Wavelength=632.8 nm	Wavelength=644 nm
x1 = 0.0277	–	1.37492	1.3736	1.37329
x1 = 0.0507	–	1.37483	1.37352	1.37322
x1 = 0.051	–	1.37489	1.37358	1.37327
x1 = 0.0717	–	1.37462	1.37331	1.373
x1 = 0.1528	–	1.37401	1.3727	1.3724
x1 = 0.1553	–	1.37401	1.3727	1.3724
x1 = 0.1938	–	1.37373	1.37243	1.37213
x1 = 0.2029	–	1.37346	1.37215	1.37185
x1 = 0.245	–	1.37306	1.37177	1.37147
x1 = 0.297	–	1.37259	1.3713	1.371
x1 = 0.2973	–	1.37284	1.37156	1.37126
x1 = 0.3068	–	1.37238	1.37108	1.37078
x1 = 0.398	–	1.37122	1.36993	1.36964
x1 = 0.4609	–	1.37063	1.36933	1.36903
x1 = 0.5434	1.36987	1.36981	1.36853	1.36823
x1 = 0.6032	1.3693	1.36925	1.36797	1.36767
x1 = 0.6371	1.36894	1.36889	1.36762	1.36731
x1 = 0.701	1.36828	1.36823	1.36695	1.36666
x1 = 0.754	1.36792	1.36786	1.36659	1.36629
x1 = 0.791	1.36756	1.3675	1.36623	1.36593
x1 = 0.8296	1.36723	1.36717	1.36589	1.36559
x1 = 0.8864	1.367	1.36695	1.36567	1.36537
x1 = 0.8903	1.36659	1.36653	1.36526	1.36497
x1 = 0.9113	1.3667	1.36631	1.36504	1.36475
x1 = 0.9547	1.36596	1.36587	1.36459	–
x1 = 0.973	1.3656	1.36557	1.3643	–
x1 = 0.9771	1.36557	1.36551	1.36423	–
x1 = 1	1.36535	1.3653	1.36402	–
